For experiment [1], the target named is T1, Cyclin-G-associated kinase (Homo sapiens) (UniProt O14976).
T1 sequence (whole entry): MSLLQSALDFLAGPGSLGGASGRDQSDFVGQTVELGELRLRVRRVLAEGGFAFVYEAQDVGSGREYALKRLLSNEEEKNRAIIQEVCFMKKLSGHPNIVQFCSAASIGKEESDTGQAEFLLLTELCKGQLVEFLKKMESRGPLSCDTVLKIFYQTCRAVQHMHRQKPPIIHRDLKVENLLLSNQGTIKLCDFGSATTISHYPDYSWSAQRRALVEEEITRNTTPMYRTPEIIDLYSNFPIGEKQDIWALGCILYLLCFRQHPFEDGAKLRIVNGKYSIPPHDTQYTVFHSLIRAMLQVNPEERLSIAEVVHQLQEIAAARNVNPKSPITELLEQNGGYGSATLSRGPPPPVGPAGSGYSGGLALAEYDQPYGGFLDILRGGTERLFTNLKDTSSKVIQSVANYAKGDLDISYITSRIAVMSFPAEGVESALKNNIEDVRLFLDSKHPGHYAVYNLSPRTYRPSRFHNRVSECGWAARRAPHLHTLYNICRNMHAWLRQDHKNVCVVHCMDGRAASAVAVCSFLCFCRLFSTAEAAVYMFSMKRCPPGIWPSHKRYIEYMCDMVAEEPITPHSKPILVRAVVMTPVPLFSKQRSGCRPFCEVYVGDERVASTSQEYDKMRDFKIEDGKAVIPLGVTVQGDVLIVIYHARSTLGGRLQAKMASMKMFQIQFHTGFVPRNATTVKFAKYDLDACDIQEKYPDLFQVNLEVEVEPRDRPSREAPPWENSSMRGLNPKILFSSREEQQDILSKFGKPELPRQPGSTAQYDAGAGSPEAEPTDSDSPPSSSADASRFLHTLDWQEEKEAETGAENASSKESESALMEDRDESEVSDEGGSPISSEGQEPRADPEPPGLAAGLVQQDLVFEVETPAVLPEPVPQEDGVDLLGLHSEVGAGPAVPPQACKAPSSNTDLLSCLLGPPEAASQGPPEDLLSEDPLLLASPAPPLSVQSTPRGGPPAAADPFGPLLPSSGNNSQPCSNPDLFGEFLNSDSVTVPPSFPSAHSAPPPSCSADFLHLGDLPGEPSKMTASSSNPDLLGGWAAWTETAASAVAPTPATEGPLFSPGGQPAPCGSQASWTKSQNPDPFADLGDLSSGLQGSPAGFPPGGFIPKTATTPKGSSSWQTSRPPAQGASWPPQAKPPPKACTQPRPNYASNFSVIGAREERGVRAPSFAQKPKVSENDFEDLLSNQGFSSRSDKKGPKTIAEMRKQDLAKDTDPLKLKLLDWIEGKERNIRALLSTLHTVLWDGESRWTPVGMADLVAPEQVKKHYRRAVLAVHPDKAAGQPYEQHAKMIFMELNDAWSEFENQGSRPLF
In words: Selectivity interaction (KinomeScan (DiscoverX)) EUB0000698a GAK. The note with it: at 10 µM.

Experiment [2] concerns the target Ribosomal protein S6 kinase alpha-6 (Homo sapiens) (UniProt Q9UK32). In words: Selectivity interaction (KinomeScan (DiscoverX)) EUB0000702a RPS6KA6. The note with it: at 1 µM.
Experiment [3] addresses Dual specificity protein kinase CLK1 (Homo sapiens, UniProt P49759). In words: Selectivity interaction (KinomeScan (DiscoverX)) EUB0000702a CLK1. As to conditions: at 1 µM.
For experiment [4], the target named is Mitogen-activated protein kinase kinase kinase kinase 5 (Homo sapiens) (UniProt Q9Y4K4). As to conditions: at 1 µM.
Mitogen-activated protein kinase kinase kinase kinase 5 (Homo sapiens), sequence (Q9Y4K4 whole entry, looked up): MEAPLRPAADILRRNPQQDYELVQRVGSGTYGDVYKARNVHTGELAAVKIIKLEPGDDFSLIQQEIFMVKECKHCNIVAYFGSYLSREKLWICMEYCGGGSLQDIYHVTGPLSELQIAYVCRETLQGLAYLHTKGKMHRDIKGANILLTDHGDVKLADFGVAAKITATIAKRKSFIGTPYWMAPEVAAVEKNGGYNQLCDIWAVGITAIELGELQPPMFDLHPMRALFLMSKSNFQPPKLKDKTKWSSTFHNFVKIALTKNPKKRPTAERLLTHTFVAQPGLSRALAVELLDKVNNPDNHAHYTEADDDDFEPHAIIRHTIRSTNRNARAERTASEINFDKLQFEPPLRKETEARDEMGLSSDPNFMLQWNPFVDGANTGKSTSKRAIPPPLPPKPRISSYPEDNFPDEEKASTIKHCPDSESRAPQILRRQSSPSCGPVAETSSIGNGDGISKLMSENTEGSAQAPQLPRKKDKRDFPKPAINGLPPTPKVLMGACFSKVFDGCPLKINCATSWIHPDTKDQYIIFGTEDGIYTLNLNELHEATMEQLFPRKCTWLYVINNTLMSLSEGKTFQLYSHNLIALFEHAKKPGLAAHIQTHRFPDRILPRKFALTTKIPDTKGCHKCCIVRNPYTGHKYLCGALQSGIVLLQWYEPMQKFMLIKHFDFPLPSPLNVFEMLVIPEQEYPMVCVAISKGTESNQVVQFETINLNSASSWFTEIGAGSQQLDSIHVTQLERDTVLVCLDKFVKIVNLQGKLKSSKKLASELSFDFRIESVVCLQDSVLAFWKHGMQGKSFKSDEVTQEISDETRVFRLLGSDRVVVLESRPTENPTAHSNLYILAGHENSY
The target of experiment [5] is Tyrosine-protein kinase ABL1 (Homo sapiens, UniProt P00519). As to conditions: at 1 µM.
Tyrosine-protein kinase ABL1, sequence (P00519 whole entry): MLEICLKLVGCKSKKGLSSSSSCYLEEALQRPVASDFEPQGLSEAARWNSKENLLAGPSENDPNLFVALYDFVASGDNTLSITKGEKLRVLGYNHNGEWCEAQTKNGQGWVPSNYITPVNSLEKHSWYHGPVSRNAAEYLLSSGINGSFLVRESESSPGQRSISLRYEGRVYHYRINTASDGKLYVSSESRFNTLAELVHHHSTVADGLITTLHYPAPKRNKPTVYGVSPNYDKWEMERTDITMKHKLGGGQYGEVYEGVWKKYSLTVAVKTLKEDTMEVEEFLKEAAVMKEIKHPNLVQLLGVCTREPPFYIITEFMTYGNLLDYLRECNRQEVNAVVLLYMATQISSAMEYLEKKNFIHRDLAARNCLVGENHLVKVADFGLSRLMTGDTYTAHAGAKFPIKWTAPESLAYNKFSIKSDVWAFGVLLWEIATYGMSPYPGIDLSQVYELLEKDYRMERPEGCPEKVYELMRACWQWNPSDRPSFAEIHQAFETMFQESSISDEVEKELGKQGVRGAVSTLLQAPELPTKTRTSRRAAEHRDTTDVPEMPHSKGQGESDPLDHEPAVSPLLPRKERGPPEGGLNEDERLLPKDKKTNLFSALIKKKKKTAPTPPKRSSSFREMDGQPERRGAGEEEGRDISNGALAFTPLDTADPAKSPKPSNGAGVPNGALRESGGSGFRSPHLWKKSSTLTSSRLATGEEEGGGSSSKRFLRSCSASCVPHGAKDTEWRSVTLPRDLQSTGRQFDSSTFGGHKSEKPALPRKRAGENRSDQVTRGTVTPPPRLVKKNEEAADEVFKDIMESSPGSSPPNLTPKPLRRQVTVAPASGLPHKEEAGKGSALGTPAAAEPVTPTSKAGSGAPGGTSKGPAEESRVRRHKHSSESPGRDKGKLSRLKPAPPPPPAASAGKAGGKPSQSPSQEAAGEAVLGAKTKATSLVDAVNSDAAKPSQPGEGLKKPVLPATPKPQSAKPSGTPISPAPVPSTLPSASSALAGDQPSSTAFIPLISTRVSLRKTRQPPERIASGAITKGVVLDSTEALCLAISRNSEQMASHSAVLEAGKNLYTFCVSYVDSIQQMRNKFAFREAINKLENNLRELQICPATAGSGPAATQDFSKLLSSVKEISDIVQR
In experiment [6] the target is Serine/threonine-protein kinase PLK2 (Homo sapiens) (UniProt Q9NYY3). The experiment in a line: Selectivity interaction (KinomeScan (DiscoverX)) EUB0000169b PLK2. As to conditions: at 1 µM.
Serine/threonine-protein kinase PLK2 (Homo sapiens), sequence (Q9NYY3 whole entry, looked up): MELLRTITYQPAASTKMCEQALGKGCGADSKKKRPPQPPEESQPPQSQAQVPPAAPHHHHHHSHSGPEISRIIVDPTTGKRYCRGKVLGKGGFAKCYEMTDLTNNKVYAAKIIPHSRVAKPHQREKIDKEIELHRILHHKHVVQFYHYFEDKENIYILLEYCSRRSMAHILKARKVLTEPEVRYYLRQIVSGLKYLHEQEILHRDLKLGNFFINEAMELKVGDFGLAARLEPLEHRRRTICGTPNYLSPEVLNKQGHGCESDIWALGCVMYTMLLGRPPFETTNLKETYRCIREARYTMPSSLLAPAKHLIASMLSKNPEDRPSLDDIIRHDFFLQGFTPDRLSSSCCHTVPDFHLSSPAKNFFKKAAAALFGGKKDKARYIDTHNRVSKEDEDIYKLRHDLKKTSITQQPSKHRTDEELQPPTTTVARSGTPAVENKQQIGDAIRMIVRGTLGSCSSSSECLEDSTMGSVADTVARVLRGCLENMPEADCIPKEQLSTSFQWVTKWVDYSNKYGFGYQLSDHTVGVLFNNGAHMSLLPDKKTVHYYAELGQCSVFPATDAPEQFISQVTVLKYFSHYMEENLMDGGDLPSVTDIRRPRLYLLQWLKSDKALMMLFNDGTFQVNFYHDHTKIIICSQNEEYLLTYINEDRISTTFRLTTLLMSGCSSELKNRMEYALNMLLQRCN
Experiment [7] concerns the target Serine/threonine-protein kinase 26 (Homo sapiens) (UniProt Q9P289). In words: Selectivity interaction (KinomeScan (DiscoverX)) EUB0000178b STK26. As to conditions: at 1 µM.
Experiment [8] deals with T2, Mitogen-activated protein kinase kinase kinase 19 (Homo sapiens) (UniProt Q56UN5).
T2 sequence (whole entry): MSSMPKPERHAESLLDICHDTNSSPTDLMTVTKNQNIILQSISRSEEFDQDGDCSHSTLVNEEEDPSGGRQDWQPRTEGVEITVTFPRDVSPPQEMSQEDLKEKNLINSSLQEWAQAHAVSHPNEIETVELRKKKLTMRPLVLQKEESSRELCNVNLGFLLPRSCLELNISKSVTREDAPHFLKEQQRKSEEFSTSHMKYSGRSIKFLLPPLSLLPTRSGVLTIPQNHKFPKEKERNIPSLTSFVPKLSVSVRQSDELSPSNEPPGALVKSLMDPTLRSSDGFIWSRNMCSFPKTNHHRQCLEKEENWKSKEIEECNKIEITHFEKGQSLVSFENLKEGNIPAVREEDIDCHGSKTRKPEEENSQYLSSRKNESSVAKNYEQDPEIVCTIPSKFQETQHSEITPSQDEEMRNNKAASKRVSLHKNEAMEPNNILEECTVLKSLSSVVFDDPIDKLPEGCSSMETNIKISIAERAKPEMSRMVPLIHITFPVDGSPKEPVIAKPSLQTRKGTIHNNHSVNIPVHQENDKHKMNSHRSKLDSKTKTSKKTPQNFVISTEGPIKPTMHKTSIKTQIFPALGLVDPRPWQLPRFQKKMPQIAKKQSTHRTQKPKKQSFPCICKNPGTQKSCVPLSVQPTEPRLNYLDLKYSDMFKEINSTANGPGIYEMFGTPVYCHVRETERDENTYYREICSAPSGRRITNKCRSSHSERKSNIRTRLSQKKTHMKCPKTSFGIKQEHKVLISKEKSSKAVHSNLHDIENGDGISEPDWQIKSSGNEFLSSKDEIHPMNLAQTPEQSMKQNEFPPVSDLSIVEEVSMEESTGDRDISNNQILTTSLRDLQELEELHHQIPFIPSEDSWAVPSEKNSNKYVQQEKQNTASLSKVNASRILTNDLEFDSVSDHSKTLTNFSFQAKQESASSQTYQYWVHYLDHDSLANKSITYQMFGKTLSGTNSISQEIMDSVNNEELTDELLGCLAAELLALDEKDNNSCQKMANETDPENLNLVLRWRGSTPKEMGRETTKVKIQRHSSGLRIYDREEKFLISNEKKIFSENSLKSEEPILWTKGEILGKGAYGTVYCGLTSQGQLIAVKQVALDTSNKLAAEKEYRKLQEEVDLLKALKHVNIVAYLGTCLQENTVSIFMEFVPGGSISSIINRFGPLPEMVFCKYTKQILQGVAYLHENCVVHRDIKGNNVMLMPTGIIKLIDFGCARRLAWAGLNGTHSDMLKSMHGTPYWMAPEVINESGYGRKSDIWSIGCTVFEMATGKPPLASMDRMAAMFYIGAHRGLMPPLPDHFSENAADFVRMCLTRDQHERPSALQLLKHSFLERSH
In words: Selectivity interaction (KinomeScan (DiscoverX)) EUB0000138c MAP3K19. The note with it: at 100 nM.

Serine/threonine-protein kinase 26 (Homo sapiens), sequence (Q9P289 2-416 limits assumed): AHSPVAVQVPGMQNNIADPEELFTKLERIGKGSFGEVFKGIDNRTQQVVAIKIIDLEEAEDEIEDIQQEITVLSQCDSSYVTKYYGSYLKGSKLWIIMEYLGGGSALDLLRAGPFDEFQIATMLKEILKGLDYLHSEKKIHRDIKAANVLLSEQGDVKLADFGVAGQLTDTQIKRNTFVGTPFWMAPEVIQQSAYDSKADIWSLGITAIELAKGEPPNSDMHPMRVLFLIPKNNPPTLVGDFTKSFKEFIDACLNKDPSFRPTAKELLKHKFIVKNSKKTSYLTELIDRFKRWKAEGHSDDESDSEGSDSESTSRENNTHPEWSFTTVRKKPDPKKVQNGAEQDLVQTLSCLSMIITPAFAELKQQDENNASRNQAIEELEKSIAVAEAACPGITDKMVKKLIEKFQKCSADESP
Dual specificity protein kinase CLK1, sequence (P49759 whole entry, looked up): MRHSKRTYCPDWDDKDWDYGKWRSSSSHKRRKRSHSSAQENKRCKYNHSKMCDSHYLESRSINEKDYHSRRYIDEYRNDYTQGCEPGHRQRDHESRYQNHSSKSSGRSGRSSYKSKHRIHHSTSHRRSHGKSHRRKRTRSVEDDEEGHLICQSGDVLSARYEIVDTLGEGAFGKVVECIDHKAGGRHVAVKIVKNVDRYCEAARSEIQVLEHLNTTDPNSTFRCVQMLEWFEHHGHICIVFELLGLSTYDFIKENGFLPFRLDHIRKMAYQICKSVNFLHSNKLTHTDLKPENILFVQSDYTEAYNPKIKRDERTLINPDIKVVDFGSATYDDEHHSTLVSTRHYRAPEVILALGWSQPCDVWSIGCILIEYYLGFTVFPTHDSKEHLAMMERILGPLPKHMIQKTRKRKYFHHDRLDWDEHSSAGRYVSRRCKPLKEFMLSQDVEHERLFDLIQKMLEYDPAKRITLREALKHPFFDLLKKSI
Ribosomal protein S6 kinase alpha-6 (Homo sapiens), sequence (Q9UK32 whole entry): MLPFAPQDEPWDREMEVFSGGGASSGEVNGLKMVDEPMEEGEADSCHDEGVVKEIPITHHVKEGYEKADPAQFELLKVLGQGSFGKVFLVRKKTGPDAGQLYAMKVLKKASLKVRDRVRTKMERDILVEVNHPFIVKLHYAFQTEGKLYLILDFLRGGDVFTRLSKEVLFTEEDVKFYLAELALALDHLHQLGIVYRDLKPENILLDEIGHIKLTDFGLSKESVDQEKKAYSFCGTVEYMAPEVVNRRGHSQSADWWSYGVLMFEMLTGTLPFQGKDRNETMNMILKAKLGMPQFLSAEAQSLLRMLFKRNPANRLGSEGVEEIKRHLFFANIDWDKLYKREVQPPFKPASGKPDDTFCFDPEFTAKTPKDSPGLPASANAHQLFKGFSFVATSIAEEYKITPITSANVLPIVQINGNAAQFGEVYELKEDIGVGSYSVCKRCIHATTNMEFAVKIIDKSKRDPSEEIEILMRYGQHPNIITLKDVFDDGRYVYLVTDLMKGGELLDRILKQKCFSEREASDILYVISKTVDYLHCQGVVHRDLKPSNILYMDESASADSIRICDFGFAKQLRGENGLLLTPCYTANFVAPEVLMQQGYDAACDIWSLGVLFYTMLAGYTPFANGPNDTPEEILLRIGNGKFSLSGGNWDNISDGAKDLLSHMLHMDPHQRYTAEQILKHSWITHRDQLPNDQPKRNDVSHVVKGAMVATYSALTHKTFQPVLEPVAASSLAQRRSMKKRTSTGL

In experiment [1], `COc1cc2ncn(-c3cc(OCc4ccccc4C(F)(F)F)c(C(N)=O)s3)c2cc1OC` [GW843682X] gave a % of control of 4.1%.
On to `CN(c1ccnc(CNc2nc(Nc3ccc4c(c3)CC(=O)N4)ncc2C(F)(F)F)n1)S(C)(=O)=O` [PF-00911705], for which the values for the % of control in experiment [2] and in experiment [3] were 4.6% and 4.4%, respectively.
Take `CCOc1cn(-c2ccc(F)cc2C)nc1C(=O)Nc1ccc(Oc2ccnc3cc(OC)c(OC)cc23)c(F)c1`: the % of control in experiment [4] and in experiment [5] was < 10% throughout.
For the molecule `CC[C@@H]1C(=O)N(C)c2cnc(Nc3ccc(C(=O)NC4CCN(C)CC4)cc3OC)nc2N1C1CCCC1`, in experiment [6], the % of control was found to be 1.2%.
Molecule `CN1C(=O)c2sccc2N(C)c2nc(Nc3ccc(S(N)(=O)=O)cc3)ncc21` registered a % of control in experiment [7] of 0.6%.
In the case of `CNC(=O)c1ccc(Nc2ncc(C(F)(F)F)c(NCc3nccnc3N(C)S(C)(=O)=O)n2)cc1` [DEFACTINIB], the % of control in experiment [8] came out at 1.7%.

(Values after ChEMBL document CHEMBL5212743, “Selectivity Literature for EUbOPEN Chemogenomics Library wave 3” (2023).)
